# Columns and labels:
# Assay type in all cases: cell-based
# HCT116 cells = assay: XTT cytotoxicity assay, HCT116 (H); settings: Homo sapiens, HCT-116
# Method: (§1) XTT Cytotoxicity Assay The XTT assay is a non-radioactive alternative for the [^51Cr] release cytotoxicity assay. XTT is a tetrazolium salt that is reduced to a formazan dye only by metabolically active, viable cells. The reduction of XTT is measured spectrophotometrically as OD490-OD650. To measure the cytotoxicity of specific compounds against cancer cells, 9×10^3 MCF-7 human breast cancer cells (shown in the tables as “(M)”), obtained from the American Type Culture Collection are plated per well in 96 well plates in DMEM medium with 10% fetal bovine serum, insulin, penicillin, and streptomycin. Following overnight culture at 37° C. and 5% CO2, the compounds to be tested, dissolved in DMSO, are added to the wells in 1 μl volume at the following concentrations: 80, 40, 20, 10, 5, 2.5, 1.25, and 0.625 μg/ml in triplicate. Additional concentrations are tested if required. 1 μl of DMSO is added to triplicate wells are the vehicle control. C75 is run at 40, 20, […], and 5 μg/ml in triplicate as positive controls. After 72 hours of incubation, cells are incubated for 4 hours with the XTT reagent as per manufacturer's instructions (Cell Proliferation Kit II (XTT) Roche). Plates are read at OD490 and OD650 on a Molecular Devices SpectraMax Plus Spectrophotometer. Three wells containing the XTT reagent without cells serve as the plate blank. XTT data are reported as OD490-OD650. Averages and standard error of the mean are computed using SOFTmax Pro software (Molecular Dynamics). The IC50 for the compounds is defined as the concentration of drug leading to a 50% reduction in OD490-OD650 compared to controls. The OD490-OD650 are computed by the SOFTmax PRO software (Molecular Devices) for each compound concentration. IC50 is calculated by linear regression, plotting the FAS activity as percent of control versus drug concentrations. Linear regression, best-fit line, r^2, and 95% confidence intervals are determined using Prism Version 3.0 (Graph Pad Software). The test was also run against OVCAR3 cells (“OV”), and HCT116 cells (“H”).
# OVCAR3 cells = assay: XTT cytotoxicity assay, OVCAR3 (OV); settings: Homo sapiens
# Method: as §1
# [1] = tested on: MCF-7 human breast cancer cells; assay: XTT cytotoxicity assay, MCF-7 (M); settings: MCF7, MCF-7, 72 hours
# Method: XTT Cytotoxicity Assay The XTT assay is a non-radioactive alternative for the [^51Cr] release cytotoxicity assay. XTT is a tetrazolium salt that is reduced to a formazan dye only by metabolically active, viable cells. The reduction of XTT is measured spectrophotometrically as OD490-OD650. To measure the cytotoxicity of specific compounds against cancer cells, 9×10^3 MCF-7 human breast cancer cells (shown in the tables as “(M)”), obtained from the American Type Culture Collection are plated per well in 96 well plates in DMEM medium with 10% fetal bovine serum, insulin, penicillin, and streptomycin. Following overnight culture at 37° C. and 5% CO2, the compounds to be tested, dissolved in DMSO, are added to the wells in 1 μl volume at the following concentrations: 80, 40, 20, 10, 5, 2.5, 1.25, and 0.625 μg/ml in triplicate. Additional concentrations are tested if required. 1 μl of DMSO is added to triplicate wells are the vehicle control. C75 is run at 40, 20, […], and 5 μg/ml in triplicate as positive controls. After 72 hours of incubation, cells are incubated for 4 hours with the XTT reagent as per manufacturer's instructions (Cell Proliferation Kit II (XTT) Roche). Plates are read at OD490 and OD650 on a Molecular Devices SpectraMax Plus Spectrophotometer. Three wells containing the XTT reagent without cells serve as the plate blank. XTT data are reported as OD490-OD650. Averages and standard error of the mean are computed using SOFTmax Pro software (Molecular Dynamics). The IC50 for the compounds is defined as the concentration of drug leading to a 50% reduction in OD490-OD650 compared to controls. The OD490-OD650 are computed by the SOFTmax PRO software (Molecular Devices) for each compound concentration. IC50 is calculated by linear regression, plotting the FAS activity as percent of control versus drug concentrations. Linear regression, best-fit line, r^2, and 95% confidence intervals are determined using Prism Version 3.0 (Graph Pad Software).
# [2] = tested on: MCF-7 human breast cancer cells (fatty acid synthesis pathway activity); assay: [14C]acetate incorporation into total lipids; settings: MCF7, [14C]acetate incorporation into lipids
# Method: Measurement of [^14C]acetate Incorporation into Total Lipids and Determination of IC50 of Compounds. This assay measures the incorporation of [^14C]acetate into total lipids and is a measure of fatty acid synthesis pathway activity in vitro. It is utilized to measure inhibition of fatty acid synthesis in vitro.
# MCF-7 human breast cancer cells cultured as above, are plated at 5×10^4 cells per well in 24-well plates. Following overnight incubation, the compounds to be tested, solubilized in DMSO, are added at 5, 10, and 20 μg/ml in triplicate, with lower concentrations tested if necessary. DMSO is added to triplicate wells for a vehicle control. C75 is run at 5 and 10 μg/ml in triplicate as positive controls. After 4 hours of incubation, 0.25 μCi of [^14C]acetate (10 μl volume) is added to each well.
# After 2 hours of additional incubation, medium is aspirated from the wells and 800 μl of chloroform:methanol (2:1) and 700 μl of 4 mM MgCl2 is added to each well. Contents of each well are transferred to 1.5 Eppendorf tubes, and spun at full-speed for 2 minutes in a high-speed Eppendorf Microcentrifuge 5415D. After removal of the aqueous (upper) layer, an additional 700 μl of chloroform:methanol (2:1) and 500 μl of 4 mM MgCl2 are added to each tube and then centrifuged for 1 minutes as above. The aqueous layer is removed with a Pasteur pipette and discarded. An additional 400 μl of chloroform:methanol (2:1) and 200 μl of 4 mM MgCl2 are added to each tube, then centrifuged and aqueous layer is discarded. The lower (organic) phase is transferred into a scintillation vial and dried at 40° C. under N2 gas. Once dried, 3 ml of scintillant (APB #NBC5104) is added and vials are counted for ^14C. The Beckman Scintillation counter calculates the average cpm values for triplicates.
# The IC50 for the compounds is defined as the concentration of drug leading to a 50% reduction in [^14C]acetate incorporation into lipids compared to controls. This is determined by plotting the average cpm for each inhibitor concentration tested, performing linear regression and computing the best-fit line, r^2 values, and 95% confidence intervals. The average cpm values are computed by the Beckman scintillation counter (Model LS6500) for each compound concentration. Computation of linear regression, best-fit line, r^2, and 95% confidence intervals are calculated using Prism Version 3.0 (Graph Pad Software).
SMILES,IC50 (HCT116 cells),IC50 (OVCAR3 cells; OVCAR-3),IC50 [1],IC50 [2],"IC50 (OVCAR3 cells; OVCAR-3, unit given as ml)"
CCCCCCCCC1(C)SC(=O)C=C1OCC(=O)Nc1cccc(OC(F)(F)F)c1 (stereo not shown),8 µg/mL,11.6 µg/mL,6.4 µg/mL,17.1 µg/mL,
CCCCCCCCC1(C)SC(=O)C=C1OCC(=O)Nc1ccc(Cl)cc1 (stereo not shown),5.9 ± 2.7 µg/mL,9.2 ± 5 µg/mL,5.2 ± 2 µg/mL,19.2 ± 2 µg/mL,
CCCCCCCCC1(C)SC(=O)C=C1OCC(=O)Nc1cccc(C(F)(F)F)c1 (stereo not shown),7.6 µg/mL,11 µg/mL,5.9 µg/mL,12.3 µg/mL,
CCCCCCCCOc1ccc(NC(=O)COC2=CC(=O)SC2(C)CCCCCCCC)cc1 (stereo not shown),> 80 µg/mL,67 µg/mL,> 80 µg/mL,> 80 µg/mL,
CCCCCCCCC1(C)SC(=O)C=C1OCC(=O)Nc1ccccc1N1CCCCC1 (stereo not shown),13.1 µg/mL,15.5 µg/mL,18.6 µg/mL,,
CCCCCCCCC1(C)SC(=O)C=C1OCC(=O)Nc1ccccc1SC (stereo not shown),31.4 µg/mL,43.8 µg/mL,26.9 µg/mL,> 80 µg/mL,
CCCCCCCC[C@]1(C)SC(=O)C=C1OCC(=O)Nc1ccccc1OC(F)(F)F,78.8 µg/mL,> 80 µg/mL,> 80 µg/mL,> 80 µg/mL,
CCCCCCCC[C@]1(C)SC(=O)C=C1OCC(=O)Nc1ccccc1C(F)(F)F,15.6 µg/mL,24.1 µg/mL,17.6 µg/mL,> 80 µg/mL,
CCCCCCCCC1(C)SC(=O)C=C1OCC(=O)Nc1ccccc1 (stereo not shown),7.1 µg/mL,12.1 µg/mL,6.2 µg/mL,,
CCCCCCCCC1(C)SC(=O)C=C1OCC(=O)Nc1ccc(OC)cc1 (stereo not shown),15.6 µg/mL,17.8 µg/mL,9.7 µg/mL,23 µg/mL,
CCCCCCCCC1(C)SC(=O)C=C1OCC(=O)Nc1ccc(C(F)(F)F)cc1 (stereo not shown),4.8 µg/mL,4 µg/mL,2.2 µg/mL,< 2.5 µg/mL,
CCCCCCCCC1(C)SC(=O)C=C1OCC(=O)Nc1ccc(Oc2ccc(Cl)cc2)cc1 (stereo not shown),6.3 µg/mL,5 µg/mL,3.1 µg/mL,> 80 µg/mL,
CCCCCCCCC1(C)SC(=O)C=C1OCC(=O)Nc1ccc(Cl)cc1Cl (stereo not shown),13.1 µg/mL,,16.8 µg/mL,,64.5 µg/mL
CCCCCCCCC1(C)SC(=O)C=C1OCC(=O)Nc1ccc(-c2cccs2)cc1 (stereo not shown),> 80 µg/mL,> 80 µg/mL,> 80 µg/mL,80.2 µg/mL,
CCCCCCCCC1(C)SC(=O)C=C1OCC(=O)Nc1ccc(Cl)cc1C(F)(F)F (stereo not shown),14 µg/mL,24 µg/mL,9.6 µg/mL,,
CCCCCCCCC1(C)SC(=O)C=C1OCC(=O)Nc1ccc2c(c1)OCO2 (stereo not shown),14.8 µg/mL,9.3 µg/mL,8.2 µg/mL,,
CCCCCCCCC1(C)OC(=O)C=C1OCC(=O)Nc1ccc(Cl)cc1 (stereo not shown),4.8 µg/mL,9.2 µg/mL,6 µg/mL,,
CCCCCCCCC1(C)SC(=O)C=C1OCC(=O)Nc1ccc(OC(F)(F)F)cc1 (stereo not shown),3.5 µg/mL,3.3 µg/mL,1.8 µg/mL,8.2 µg/mL,
CCCCCCCCC1(C)SC(=O)C=C1OCC(=O)Nc1ccc(SC)cc1 (stereo not shown),11.5 µg/mL,16.9 µg/mL,7.9 µg/mL,> 80 µg/mL,
